Each block holds one compound with its values, some of them ahead of it.
What was measured:
Format in all cases: functional
[1] = tested on: Acinetobacter baumannii; test: Potentiation of clarithromycin-induced antibacterial activity against Acinetobacter baumannii AB5075 assessed as clarithromycin MIC at 30 uM after 2 to 9 days by broth microdilution method (reference value: […] ug/ml); details: time day 2-9
[2] = tested on: Acinetobacter baumannii; test: Potentiation of clarithromycin-induced antibacterial activity against Acinetobacter baumannii AB5075 assessed as clarithromycin MIC at 10 uM by CLSI based microdilution method (reference value: […] ug/ml)
[3] = tested on: Acinetobacter baumannii; test: Potentiation of clarithromycin-induced antibacterial activity against Acinetobacter baumannii AB5075 assessed as assessed as fold reduction in clarithromycin MIC at 10 uM by CLSI based microdilution method
[4] = tested on: Acinetobacter baumannii; test: Potentiation of clarithromycin-induced antibacterial activity against Acinetobacter baumannii AB5075 assessed as fold reduction in clarithromycin MIC at 30 uM by broth microdilution method (reference value: 512 ug/ml)
[5] = tested on: Acinetobacter baumannii; test: Potentiation of clarithromycin-induced antibacterial activity against Acinetobacter baumannii AB5075 assessed as fold reduction in clarithromycin MIC at 30 uM after 2 to 9 days by broth microdilution method; details: time day 2-9
[6] = tested on: Acinetobacter baumannii; test: Antibacterial activity against Acinetobacter baumannii AB5075 assessed as reduction in microbial growth by CLSI based microdilution method
[7] = tested on: Acinetobacter baumannii; test: Potentiation of clarithromycin-induced antibacterial activity against Acinetobacter baumannii AB5075 assessed as clarithromycin MIC at 30 uM by CLSI based microdilution method (reference value: […] ug/ml)
[8] = tested on: Acinetobacter baumannii; test: Potentiation of clarithromycin-induced antibacterial activity against Acinetobacter baumannii 4052 assessed as fold reduction in clarithromycin MIC at 10 uM incubated for 16 hrs by broth microdilution method
[9] = tested on: Acinetobacter baumannii; test: Potentiation of clarithromycin-induced antibacterial activity against Acinetobacter baumannii 3560 assessed as fold reduction in clarithromycin MIC at 10 uM incubated for 16 hrs by broth microdilution method
[10] = tested on: Acinetobacter baumannii; test: Potentiation of clarithromycin-induced antibacterial activity against Acinetobacter baumannii 5256 assessed as fold reduction in clarithromycin MIC at 10 uM incubated for 16 hrs by broth microdilution method
[11] = tested on: Acinetobacter baumannii; test: Potentiation of clarithromycin-induced antibacterial activity against Acinetobacter baumannii AB5075 assessed as fold reduction in clarithromycin MIC at 20 uM incubated for 16 hrs in presence of clarithromycin by broth microdilution method
[12] = tested on: Acinetobacter baumannii; test: Potentiation of clarithromycin-induced antibacterial activity against Acinetobacter baumannii AB5075 assessed as clarithromycin MIC at 5 uM incubated for 16 hrs by broth microdilution method (reference value: […] ug/ml)
[13] = tested on: Acinetobacter baumannii; test: Potentiation of clarithromycin-induced antibacterial activity against Acinetobacter baumannii AB5075 assessed as fold reduction in clarithromycin MIC at 30 uM incubated for 16 hrs in presence of clarithromycin by broth microdilution method
[14] = tested on: Acinetobacter baumannii; test: Potentiation of clarithromycin-induced antibacterial activity against Acinetobacter baumannii AB5075 assessed as fold reduction in clarithromycin MIC at 10 uM incubated for 16 hrs in presence of clarithromycin by broth microdilution method
[15] = tested on: Acinetobacter baumannii; test: Potentiation of clarithromycin-induced antibacterial activity against Acinetobacter baumannii 5711 assessed as fold reduction in clarithromycin MIC at 10 uM incubated for 16 hrs by broth microdilution method
[16] = tested on: Acinetobacter baumannii; test: Potentiation of clarithromycin-induced antibacterial activity against Acinetobacter baumannii 5001 assessed as fold reduction in clarithromycin MIC at 10 uM incubated for 16 hrs by broth microdilution method
[17] = tested on: Acinetobacter baumannii; test: Potentiation of clarithromycin-induced antibacterial activity against Acinetobacter baumannii 3927 assessed as fold reduction in clarithromycin MIC at 10 uM incubated for 16 hrs by broth microdilution method
[18] = tested on: Acinetobacter baumannii; test: Potentiation of clarithromycin-induced antibacterial activity against Acinetobacter baumannii AB5075 assessed as clarithromycin MIC at 10 uM incubated for 16 hrs by broth microdilution method (reference value: […] ug/ml)
[19] = tested on: Acinetobacter baumannii; test: Potentiation of clarithromycin-induced antibacterial activity against Acinetobacter baumannii AB5075 assessed as clarithromycin MIC at 20 uM incubated for 16 hrs by broth microdilution method (reference value: […] ug/ml)
[20] = tested on: Acinetobacter baumannii; test: Potentiation of clarithromycin-induced antibacterial activity against Acinetobacter baumannii 4269 assessed as fold reduction in clarithromycin MIC at 10 uM incubated for 16 hrs by broth microdilution method
[21] = tested on: Acinetobacter baumannii; test: Potentiation of clarithromycin-induced antibacterial activity against Acinetobacter baumannii 4857 assessed as fold reduction in clarithromycin MIC at 10 uM incubated for 16 hrs by broth microdilution method
[22] = tested on: Acinetobacter baumannii; test: Potentiation of clarithromycin-induced antibacterial activity against Acinetobacter baumannii AB5075 assessed as clarithromycin MIC at 7.5 uM incubated for 16 hrs by broth microdilution method (reference value: […] ug/ml)
[23] = tested on: Acinetobacter baumannii; test: Potentiation of clarithromycin-induced antibacterial activity against Acinetobacter baumannii 8967 assessed as fold reduction in clarithromycin MIC at 10 uM incubated for 16 hrs by broth microdilution method
[24] = tested on: Acinetobacter baumannii; test: Potentiation of clarithromycin-induced antibacterial activity against Acinetobacter baumannii 4795 assessed as fold reduction in clarithromycin MIC at 10 uM incubated for 16 hrs by broth microdilution method
[25] = tested on: Acinetobacter baumannii; test: Potentiation of clarithromycin-induced antibacterial activity against Acinetobacter baumannii 4878 assessed as fold reduction in clarithromycin MIC at 10 uM incubated for 16 hrs by broth microdilution method
[26] = tested on: Acinetobacter baumannii; test: Potentiation of clarithromycin-induced antibacterial activity against Acinetobacter baumannii 4991 assessed as fold reduction in clarithromycin MIC at 10 uM incubated for 16 hrs by broth microdilution method
[27] = tested on: Acinetobacter baumannii; test: Potentiation of clarithromycin-induced antibacterial activity against Acinetobacter baumannii 4448 assessed as fold reduction in clarithromycin MIC at 10 uM incubated for 16 hrs by broth microdilution method
[28] = tested on: Acinetobacter baumannii; test: Potentiation of clarithromycin-induced antibacterial activity against Acinetobacter baumannii AB5075 assessed as clarithromycin MIC at […] incubated for 16 hrs by broth microdilution method (reference value: […] ug/ml); details: dose 30 µM
[29] = tested on: Acinetobacter baumannii; test: Potentiation of clarithromycin-induced antibacterial activity against Acinetobacter baumannii 4026 assessed as fold reduction in clarithromycin MIC at 10 uM incubated for 16 hrs by broth microdilution method
[30] = tested on: Acinetobacter baumannii; test: Potentiation of clarithromycin-induced antibacterial activity against Acinetobacter baumannii 4025 assessed as fold reduction in clarithromycin MIC at 10 uM incubated for 16 hrs by broth microdilution method
[31] = tested on: Acinetobacter baumannii; test: Potentiation of clarithromycin-induced antibacterial activity against Acinetobacter baumannii 3785 assessed as fold reduction in clarithromycin MIC at 10 uM incubated for 16 hrs by broth microdilution method
[32] = tested on: Acinetobacter baumannii; test: Potentiation of clarithromycin-induced antibacterial activity against Acinetobacter baumannii 4490 assessed as fold reduction in clarithromycin MIC at 10 uM incubated for 16 hrs by broth microdilution method
[33] = tested on: Acinetobacter baumannii; test: Potentiation of clarithromycin-induced antibacterial activity against Acinetobacter baumannii 4957 assessed as fold reduction in clarithromycin MIC at 10 uM incubated for 16 hrs by broth microdilution method
[34] = tested on: Acinetobacter baumannii; test: Potentiation of clarithromycin-induced antibacterial activity against Acinetobacter baumannii 5197 assessed as fold reduction in clarithromycin MIC at 10 uM incubated for 16 hrs by broth microdilution method
[35] = tested on: Acinetobacter baumannii; test: Potentiation of clarithromycin-induced antibacterial activity against Acinetobacter baumannii 4456 assessed as fold reduction in clarithromycin MIC at 10 uM incubated for 16 hrs by broth microdilution method
[36] = tested on: Acinetobacter baumannii; test: Potentiation of clarithromycin-induced antibacterial activity against Acinetobacter baumannii 4498 assessed as fold reduction in clarithromycin MIC at 10 uM incubated for 16 hrs by broth microdilution metho
[37] = tested on: Acinetobacter baumannii; test: Potentiation of clarithromycin-induced antibacterial activity against Acinetobacter baumannii 4027 assessed as fold reduction in clarithromycin MIC at 10 uM incubated for 16 hrs by broth microdilution method
[38] = tested on: Acinetobacter baumannii; test: Potentiation of clarithromycin-induced antibacterial activity against Acinetobacter baumannii AB5075 assessed as fold reduction in clarithromycin MIC at 5 uM incubated for 16 hrs in presence of clarithromycin by broth microdilution method
[39] = tested on: Acinetobacter baumannii; test: Potentiation of clarithromycin-induced antibacterial activity against Acinetobacter baumannii AB5075 assessed as fold reduction in clarithromycin MIC at 7.5 uM incubated for 16 hrs in presence of clarithromycin broth microdilution method
[40] = tested on: Acinetobacter baumannii; test: Potentiation of clarithromycin-induced antibacterial activity against Acinetobacter baumannii 3806 assessed as fold reduction in clarithromycin MIC at 10 uM incubated for 16 hrs by broth microdilution method
[41] = tested on: Acinetobacter baumannii; test: Antibacterial activity against Acinetobacter baumannii AB5075 assessed as reduction in microbial growth incubated for 16 hrs by broth microdilution method

MIC [1]: 0.25 µg/mL
MIC [2]: 2 µg/mL
MIC [4]: 2 µg/mL
MIC [6]: 100 µM
MIC [7]: 0.25 µg/mL
Compound: Cl.Nc1nc(-c2ccc(NC(=O)c3cc(Cl)cc(Cl)c3)cc2)c[nH]1
fold change (FC) [3]: 16
fold change (FC) [5]: 128

MIC [12]: 8 µg/mL
MIC [18]: 0.5 µg/mL
MIC [19]: 0.5 µg/mL
MIC [22]: 1 µg/mL
MIC [28]: 0.5 µg/mL
MIC [41]: > 200 µM
Compound: Cl.Nc1nc(-c2ccc(NC(=O)c3ccc(Cl)c(Cl)c3)cc2F)c[nH]1
fold change (FC) [8]: 8
fold change (FC) [9]: 8
fold change (FC) [10]: 8
fold change (FC) [11]: 64
fold change (FC) [13]: 64
fold change (FC) [14]: 64
fold change (FC) [15]: 8
fold change (FC) [16]: 8
fold change (FC) [17]: 8
fold change (FC) [20]: 8
fold change (FC) [21]: 8
fold change (FC) [23]: 8
fold change (FC) [24]: 8
fold change (FC) [25]: 8
fold change (FC) [26]: 8
fold change (FC) [27]: 8
fold change (FC) [29]: 8
fold change (FC) [30]: 8
fold change (FC) [31]: 8
fold change (FC) [32]: 8
fold change (FC) [33]: 8
fold change (FC) [34]: 8
fold change (FC) [35]: 8
fold change (FC) [36]: 8
fold change (FC) [37]: 8
fold change (FC) [38]: 4
fold change (FC) [39]: 32
fold change (FC) [40]: 8
